Test: Henry solubility constant Hcp at 298.15 K (mol/(m3 Pa))
Conditions: reference: Fang et al. (2006)

SMILES | Henry solubility constant Hcp
Clc1cc(-c2cc(Cl)c(Cl)c(Cl)c2Cl)cc(Cl)c1Cl [2,3,3',4,4',5,5'-heptachlorobiphenyl] | 0.084
Clc1cc(-c2cc(Cl)c(Cl)c(Cl)c2)cc(Cl)c1Cl [3,3',4,4',5,5'-hexachlorobiphenyl] | 0.081
Clc1ccc(-c2ccc(Cl)c(Cl)c2)cc1Cl [3,3',4,4'-tetrachlorobiphenyl] | 0.091
Clc1cc(-c2ccc(Cl)c(Cl)c2Cl)cc(Cl)c1Cl [2,3,3',4,4',5'-hexachlorobiphenyl] | 0.06
Clc1ccc(-c2cc(Cl)c(Cl)c(Cl)c2Cl)cc1Cl [2,3,3',4,4',5-hexachlorobiphenyl] | 0.068
Clc1cc(Cl)c(-c2cc(Cl)c(Cl)c(Cl)c2)cc1Cl [2,3',4,4',5,5'-hexachlorobiphenyl] | 0.078
Clc1ccc(-c2cc(Cl)c(Cl)cc2Cl)cc1Cl [2,3',4,4',5-pentachlorobiphenyl] | 0.057
Clc1ccc(-c2cc(Cl)c(Cl)c(Cl)c2)c(Cl)c1 [2,3',4,4',5'-pentachlorobiphenyl] | 0.046
Clc1ccc(-c2cc(Cl)c(Cl)c(Cl)c2)cc1 [3,4,4',5-tetrachlorobiphenyl] | 0.088
Clc1ccc(-c2ccc(Cl)c(Cl)c2Cl)cc1Cl [2,3,3',4,4'-pentachlorobiphenyl] | 0.18
Clc1ccc(-c2cc(Cl)c(Cl)c(Cl)c2)cc1Cl [3,3',4,4',5-pentachlorobiphenyl] | 0.1
